These results are taken from patent US12551532B2, “Long-acting amylin receptor agonists and uses thereof” (Eli Lilly and Company, priority 2021, dated 2026).

Starred links: 1 amine or outer side, 2 acyl side, 3 side chain; linkers in the order of their positions; H or OH if unused. Positions of bridges follow the written chain, without caps; N, C: chain ends. Non-standard residues stand in square brackets, D forms with d. Residues, ends and D or L forms follow the SMILES beside them. Groups on a side chain read outwards from the residue. *: point of attachment. C20 diacid = O=C(O)CCCCCCCCCCCCCCCCCCC(=O)*; γGlu = O=C(O)[C@H](CCC(=O)[*:2])N[*:1]; αMeF = C[C@](N)(Cc1ccccc1)C(=O)O; NMeD = CN[C@@H](CC(=O)O)C(=O)O; NMeN = CN[C@@H](CC(N)=O)C(=O)O; Orn = NCCC[C@H](N)C(=O)O; CH2 = C([*:1])[*:2]

One data set deals with T1, human CT receptors (Homo sapiens, UniProt P30988).
T1 construct: expressed in transfected cells
T1 sequence (P30988 25-474): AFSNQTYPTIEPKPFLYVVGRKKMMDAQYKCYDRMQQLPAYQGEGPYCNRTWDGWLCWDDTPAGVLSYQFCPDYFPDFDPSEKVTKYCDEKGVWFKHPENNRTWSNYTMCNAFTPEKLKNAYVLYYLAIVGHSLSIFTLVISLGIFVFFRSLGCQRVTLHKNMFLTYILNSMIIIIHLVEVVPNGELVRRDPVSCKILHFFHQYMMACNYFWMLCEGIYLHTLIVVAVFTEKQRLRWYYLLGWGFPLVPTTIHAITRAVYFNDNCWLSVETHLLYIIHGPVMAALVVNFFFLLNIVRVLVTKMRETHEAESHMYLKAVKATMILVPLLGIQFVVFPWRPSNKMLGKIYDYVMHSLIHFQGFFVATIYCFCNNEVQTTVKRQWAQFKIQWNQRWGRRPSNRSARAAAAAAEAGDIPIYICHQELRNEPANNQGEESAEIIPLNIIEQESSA
Briefly: hCTR cAMP functional activity (HTRF). The conditions noted are these: ±SE; UMUC3 cells overexpressing hCTR; relative EC50. In kind it is cell-based. On the procedure:
(§1) The AMY1 and CT receptors are GPCRs that are functionally coupled to Gas proteins. […] In vitro activity of peptides is measured by the amount of cAMP formed in human AMY1R and CTR overexpressed cells.
Human CT receptors are stably expressed in human urinary bladder cells (UM-UC-3, or UMUC3) under control of a pcDNA expression vector. […] After 20 days under selection, the mRNA levels from different clones are measured to confirm the expression of hCTR. To determine the function of over-expressed hCTR cells, the intracellular cAMP levels in response to salmon calcitonin are measured and compared to the expression of hCTR mRNA in each clone.
(§2) hAMY1R cells are cultured in MEM 1× (Corning) supplemented with 10% FBS, 1% antibiotic/antimycotic solution, 1 mM sodium pyruvate, 1×MEM NEAA, 1× GlutaMAX-I, 200 μg/mL hygromycin B, and 0.4 μg/mL puromycin. The hCTR cells are cultured in the same medium lacking the puromycin. Cultured cells are grown to 70% confluency and then incubated overnight with fresh medium.
(§3) Peptides diluted in DMSO are added (200 nL/well) in a 1:3 dilution series using ECHO acoustic liquid handler (Beckman). Cultured cells are detached with TrypLE Express (Gibco), resuspended in assay buffer, and 10 μL containing 1200 cells/well (hCTR) or 1500 cells/well (hAMY1R) are dispensed into each well. The plates are incubated at room temperature for 1 hour.
(§4) The amount of intracellular cAMP is quantitated using HTRF technology (Homogeneous Time Resolved Fluorescence; Cisbio) as per vendor instructions. Briefly, 10 μL cAMP-d2 conjugate and 10 μL anti-cAMP-cryptate conjugate in lysis buffer are incubated with the treated cells at room temperature for 60 min. […] The raw data are converted to cAMP amount (pmol/well) using a cAMP standard curve generated for each experiment.
(In general: TR-FRET usually uses a lanthanide donor and a delayed reading to cut background.)

Data set [1] in a line: Pharmacokinetics in male Sprague Dawley rats. In kind it is in vivo. The conditions noted are these: single SC 30 nmol/kg, mean. On the procedure: (§5) The pharmacokinetics of Compound II (SEQ ID NO:2), Compound IV (SEQ ID NO:4), Compound VI (SEQ ID NO:6), and Compound VIII (SEQ ID NO:8) are evaluated following a single subcutaneous administration of 30 nmol/kg to male Sprague Dawley rats. Blood samples are collected at 1, 3, 6, 12, 24, 48, 72, 96 hours post SC dose. The resulting individual plasma concentrations are used to calculate pharmacokinetic parameters. Peptide plasma (K3EDTA) concentrations are determined using a qualified LC/MS method that measured the intact mass of the peptides. Each peptide and an analog as an internal standard are extracted from plasma. A high resolution Thermo Q-Exactive is used for LC/MS detection.

In the next data set the test system is CD4+ T cells. Put plainly: T cell proliferation assay. The conditions noted are these: 7-10 donors with diverse MHC.
The next data set addresses T2, hAMY1R (Homo sapiens, UniProt O60894+P30988).
T2 construct: expressed in transfected cells
Put plainly: hAMY1R cAMP functional activity (HTRF). In kind it is cell-based. The conditions noted are these: ±SE; UMUC3 cells overexpressing hAMY1R; relative EC50. On the procedure:
as §1
Human AMY1R stable cell lines are generated by further transfecting human RAMP1-pCMVpuroPB (T14213) into UMUC3 hCTR clone cells. After selection, the mRNA levels human RAMP1 from different clones are measured to confirm the expression of human AMY1R.
as §2, §3, §4

A short description of data set [2]: Pharmacokinetics in male cynomolgus monkeys. The conditions noted are these: single SC 20 nmol/kg, mean. In kind it is in vivo. On the procedure: as §5, with “20” for “30”, “cynomolgus monkeys.” for “Sprague Dawley rats.”, “120, 168, 240, 336, 408, 504” for “96”
A further data set relates to human dendritic cells. In kind it is cell-based. On the procedure:
MAPPS profiles the MHC-II presented peptides on human dendritic cells treated with tested molecules. CD14+ cells, isolated from the PBMCs of normal human donors, are cultured and differentiated into immature DCs by incubation with IL-4 and GM-CSF. On day 4, culture media is replaced with fresh media containing tested molecules. On day 5, LPS is added to transform the cells into mature DCs. On day 6, cells are lysed in RIPA buffer with protease inhibitors. Immunoprecipitation of MHC-II complexes are performed using biotinylated anti-MHC-II antibody coupled to streptavidin beads. The bound complex is eluted and filtered. The isolated MHC-II peptides are analyzed by a mass spectrometer. Peptide identifications are generated by an internal proteomics pipeline using search algorithms with no enzyme and a bovine/human database with test sequences appended to the database. A KNIME workflow is used to process the identification files from the samples. Peptides identified from the test articles are aligned against the parent sequence of the test molecule. The output is used to determine the percentage of donors displaying MHC-II peptides from regions of the test molecule. Compound II, Compound IV, Compound VI, Compound VIII, a compound representative of U.S. Pat. No. 9,023,789 (hereinafter “Compound '789”), and Pramlintide are tested in the MAPPs assay.

[3] abbreviates: male, cynomolgus monkey, plasma, n = 3.

T2 sequence (O60894 27-148 partner, one chain of several): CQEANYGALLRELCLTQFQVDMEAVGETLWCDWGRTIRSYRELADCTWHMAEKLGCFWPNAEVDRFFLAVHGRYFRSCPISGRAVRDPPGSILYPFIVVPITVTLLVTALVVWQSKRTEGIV
Description for CD4+ T cells: This assay assesses the ability of tested antibodies or tested MAPPS peptides to activate CD4+ T cells by inducing cellular proliferation. CD8+ T cell depleted PBMC's are prepared and labeled with CFSE. Each sample is tested with media control, keyhole limpet haemocyanin (KLH; positive clinical benchmark control), tested antibodies, or tested MAPPS peptides. Cultures are incubated for 7 days. On day 7, samples are analyzed by flow cytometry.

Regarding `CC(C)C[C@H](NC(=O)[C@H](CCCN)NC(=O)CNC(=O)[C@@H](NC(=O)[C@H](C)NC(=O)[C@@H]1CSCSC[C@H](NC(=O)CC[C@H](N)C(=O)O)C(=O)N[C@@H](CC(N)=O)C(=O)N[C@@H]([C@@H](C)O)C(=O)N[C@@H](C)C(=O)N[C@@H]([C@@H](C)O)C(=O)N1)[C@@H](C)O)C(=O)N[C@@H](C)C(=O)N[C@@H](CCC(=O)O)C(=O)N[C@@](C)(Cc1ccccc1)C(=O)N[C@@H](CC(C)C)C(=O)N[C@H](C(=O)N[C@@H](CCCNC(=N)N)C(=O)N[C@@H](CO)C(=O)N[C@@H](CO)C(=O)N[C@@H](CC(N)=O)C(=O)N(C)[C@@H](CC(N)=O)C(=O)N[C@@H](Cc1ccccc1)C(=O)NCC(=O)N1CCC[C@H]1C(=O)N[C@@H](CCCCNC(=O)CC[C@H](NC(=O)CC[C@H](NC(=O)CCCCCCCCCCCCCCCCCCC(=O)O)C(=O)O)C(=O)O)C(=O)N[C@@H](CC(C)C)C(=O)N1CCC[C@H]1C(=O)N1CCC[C@H]1C(=O)N[C@H](C(=O)N[C@@H](CCC(=O)O)C(=O)N[C@H](C(=O)NCC(=O)N[C@@H](CO)C(=O)N[C@@H](CC(N)=O)C(=O)N[C@H](C(=O)N[C@@H](Cc1ccc(O)cc1)C(N)=O)[C@@H](C)O)C(C)C)[C@@H](C)O)C(C)C` [Compound II] (γGlu-CNTATCATG[Orn]LAE[αMeF]LVRSSN[NMeN]FGPK([γGlu-γGlu-C20 diacid])LPPTEVGSNTY-NH2; linker 1-6 via CH2), on human CT receptors, the EC50 (usually the concentration at which the effect is half-maximal) is 2.34 ± 0.272 nM. Further, the Tmax (as a rule, the time from dosing to the highest level) in data set [1] (rat, plasma, n = 3) worked out at 24 h. Further, in data set [1] (n = 3), the AUCINF/D worked out at 473 ± 63.8 hr * kg * nmol/L/nmol and the Cmax/D turned out to be 4.9 ± 0.9 kg * nmol/L/nmol. Further, in the data set with CD4+ T cells, the “T Cell Proliferation Assay: protein, immunogenicity risk” value is listed as “Low Risk” and the “T Cell Proliferation Assay: protein, positive donors” value is recorded as “(0/9”. On hAMY1R, this compound came in with an EC50 of 0.075 ± 0.012 nM. In addition, the Tmax in data set [2] (setting [3]) is 64 ± 13.9 h. In data set [2] (n = 3), this compound showed an AUCINF/D of 1752 ± 313 hr * kg * nmol/L/nmol and a Cmax/D of 6.7 ± 1.0 kg * nmol/L/nmol. In the data set on human dendritic cells, the “MAPPS Assay donors displayed peptides” value is recorded as “no peptides”, the “MAPPS Assay immunogenicity risk” value is listed as “Low Risk” and the “peptides displayed on MHC-II complexes” value is recorded as “no peptides displayed on MHC-II complexes”.

The compound `CC(C)C[C@H](NC(=O)[C@H](CCCN)NC(=O)CNC(=O)[C@@H](NC(=O)[C@H](C)NC(=O)[C@@H]1CSCSC[C@H](NC(=O)CC[C@H](N)C(=O)O)C(=O)N[C@@H](CC(N)=O)C(=O)N[C@@H]([C@@H](C)O)C(=O)N[C@@H](C)C(=O)N[C@@H]([C@@H](C)O)C(=O)N1)[C@@H](C)O)C(=O)N[C@@H](C)C(=O)N[C@@H](CCC(=O)O)C(=O)N[C@@](C)(Cc1ccccc1)C(=O)N[C@@H](CC(C)C)C(=O)N[C@H](C(=O)N[C@@H](CCCNC(=N)N)C(=O)N[C@@H](CO)C(=O)N[C@@H](CO)C(=O)N[C@@H](CC(N)=O)C(=O)N(C)[C@@H](CC(=O)O)C(=O)N[C@@H](Cc1ccccc1)C(=O)NCC(=O)N1CCC[C@H]1C(=O)N[C@@H](CCCCNC(=O)CC[C@H](NC(=O)CC[C@H](NC(=O)CCCCCCCCCCCCCCCCCCC(=O)O)C(=O)O)C(=O)O)C(=O)N[C@@H](CC(C)C)C(=O)N1CCC[C@H]1C(=O)N1CCC[C@H]1C(=O)N[C@H](C(=O)N[C@@H](CCC(=O)O)C(=O)N[C@H](C(=O)NCC(=O)N[C@@H](CO)C(=O)N[C@@H](CC(N)=O)C(=O)N[C@H](C(=O)N[C@@H](Cc1ccc(O)cc1)C(N)=O)[C@@H](C)O)C(C)C)[C@@H](C)O)C(C)C` [Compound IV, γE-CNTATCATG-Orn-LAE-αMeF-LVRSSN-NMeD-FGPKLPPTEVGSNTY-NH2] (γGlu-CNTATCATG[Orn]LAE[αMeF]LVRSSN[NMeD]FGPK([γGlu-γGlu-C20 diacid])LPPTEVGSNTY-NH2; linker 1-6 via CH2) returned an EC50 at human CT receptors of 6.14 ± 0.764 nM. Also, in data set [1] (rat, plasma, n = 3), the apparent clearance (CL/F) (commonly clearance divided by bioavailability, as obtained after extravascular dosing) is 1.8 mL/h/kg and the Tmax came out at 20 ± 6.9 h. For the same compound, in data set [1] (rat, plasma, n = 3, read-out: T l/2 (converted)), the half-life was 66.9 ± 27.6 h. Also, in data set [1] (n = 3), the AUCINF/D is reported as 551 ± 27.1 hr * kg * nmol/L/nmol and the Cmax/D came to 5.5 ± 2.1 kg * nmol/L/nmol. In addition, in the data set with CD4+ T cells, the “T Cell Proliferation Assay: protein, immunogenicity risk” value is on record as “Low Risk” and the “T Cell Proliferation Assay: protein, positive donors” value is recorded as “(0/9”. At hAMY1R, a half-maximal effect (EC50) was put at 0.107 ± 0.016 nM. For the same compound, in data set [2] (setting [3]), the CL/F is 0.62 mL/h/kg and the Tmax is 48 ± 24 h. Further, in data set [2] (male, cynomolgus monkey, plasma, n = 3, read-out: T½ (converted)), the half-life is 177 ± 13.5 h. Moreover, in data set [2] (n = 3), the AUCINF/D stood at 1607 ± 104 hr * kg * nmol/L/nmol and the Cmax/D is on record as 6.2 ± 1.0 kg * nmol/L/nmol. For the same compound, in the data set with human dendritic cells, the “MAPPS Assay donors displayed peptides” value is listed as “no peptides”, the “MAPPS Assay immunogenicity risk” value is “Low Risk” and the “peptides displayed on MHC-II complexes” value is given as “no peptides displayed on MHC-II complexes”.
